We go through 7 compounds from ChEMBL document CHEMBL5727720, “Bruton's tyrosine kinase inhibitors” (2020).

By IC50 is commonly meant the concentration that inhibits the measured activity by half.

The target in this experiment is Tyrosine-protein kinase BTK (Homo sapiens, UniProt Q06187). Put plainly: Kinase Assay: Measurements were performed in a reaction volume of 15 μL using 384-well assay plates. Kinase enzyme, inhibitor, ATP and 1 μM peptide substrate were incubated in a reaction buffer compose of Hepes 50 mM (pH7.0), NaN3 0.02%, BSA 0.01%, Orthocanadate 0.1 mM. After one hour, the kinase reaction was quenched by the addition of […] antibody and XL-665 in 1×Detection buffer containing 60 mM EDTA (Cisbio), and the mixture was allowed to incubate for one hour. The HTRF signal was measured on a multimode plate reader (EnVision® Multilabel Reader, Perkin Elmer) with an excitation wavelength (λEx) of 330 nm and detection wavelengths (λEm) of 615 and 665 nm. Activity was determined by the ratio of the fluorescence at 665 nm to that at 615 nm. For each compound, enzyme activity as measured at various concentrations of compound, Negative control reactions were performed in the absence of inhibitor in two replicates and eight no enzyme controls.
Chain of Tyrosine-protein kinase BTK (Q06187 whole entry): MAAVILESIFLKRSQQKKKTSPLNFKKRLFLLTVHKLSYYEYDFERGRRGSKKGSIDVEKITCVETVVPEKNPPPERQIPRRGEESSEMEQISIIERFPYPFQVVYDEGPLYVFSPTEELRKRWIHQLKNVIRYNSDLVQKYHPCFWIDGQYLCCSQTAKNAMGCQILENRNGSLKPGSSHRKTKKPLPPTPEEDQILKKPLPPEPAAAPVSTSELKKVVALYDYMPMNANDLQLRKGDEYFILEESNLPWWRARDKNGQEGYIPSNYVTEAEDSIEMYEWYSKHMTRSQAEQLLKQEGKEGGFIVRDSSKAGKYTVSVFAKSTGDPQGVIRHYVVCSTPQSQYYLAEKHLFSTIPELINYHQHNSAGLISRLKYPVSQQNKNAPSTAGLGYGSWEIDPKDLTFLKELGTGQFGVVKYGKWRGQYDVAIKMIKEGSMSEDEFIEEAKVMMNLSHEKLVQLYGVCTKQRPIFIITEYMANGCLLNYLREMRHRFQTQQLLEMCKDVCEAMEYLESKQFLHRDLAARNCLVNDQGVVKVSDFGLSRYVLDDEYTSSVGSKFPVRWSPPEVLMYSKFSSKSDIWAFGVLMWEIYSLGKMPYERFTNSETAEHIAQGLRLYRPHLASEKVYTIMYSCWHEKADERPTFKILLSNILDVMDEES

For the compound `C=CC(=O)N1CCC[C@@H](n2nc(-c3ccc(Oc4cccc(OC)c4Cl)cc3)c3cncc(OC)c32)C1`, the IC50 is below 10 nM.

Take `C=CC(=O)N1CCC[C@@H](n2nc(-c3ccc(Oc4cccc(OC)c4Cl)cc3)c3cncc(OC4CCOC4)c32)C1` (some centres not stated): the 50% inhibitory concentration (IC50) was below 10 nM.

With `C=CC(=O)N1CCC[C@@H](n2nc(-c3ccc(Oc4cccc(OC)c4Cl)cc3)c3cncc(OC(C)C)c32)C1`, the IC50 was below 10 nM.

Take `C=CC(=O)N1CC[C@@H](n2nc(-c3ccc(Oc4cccc(OC)c4Cl)cc3)c3cncc(OCC)c32)C1`: the IC50 was below 10 nM.

As for `C=CC(=O)N1CCC[C@@H](n2nc(-c3ccc(Oc4cccc(OC)c4Cl)cc3)c3cncc(OCCCC)c32)C1`, the IC50 is below 10 nM.

Take `C=CC(=O)N1CCC[C@@H](n2nc(-c3ccc(Oc4cccc(OC)c4Cl)cc3)c3cncc(OCCC)c32)C1`: the IC50 was below 10 nM.

Take `C=CC(=O)N1CCC[C@@H](n2nc(-c3ccc(Oc4cccc(OC)c4Cl)cc3)c3cncc(OCC)c32)C1`: the IC50 was below 10 nM.
